Measured values: US20070213339A1 (Bayer Pharmaceuticals Corporation, priority 2004, published 2007)

Test system: Colo205 human colon carcinoma cell line
Assay: In vitro tumor cell proliferation assay (MTS, CellTiter 96 Aqueous One Solution)
Type: cell-based
Settings: COLO 205, Colo205 cells, 72 hours compound exposure, MTS absorbance at 490 nm, read-out: IC50 (concentration of test compound required to inhibit proliferation of 50% of the cells)
How it was run: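 Colo205 cells seeded at 2000 cells/well in RPMI-1640 with 10% serum, exposed to compound for 72 h at 37 °C, 5% CO2, in a 5-point dose-response up to 10-20 μM. Viability read by MTS absorbance at 490 nm; IC50 from background-corrected percent inhibition by linear regression.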

Compound | IC50
N#Cc1ccc(N2CCN(c3c(F)cc4c(=O)c(C(=O)O)cn(-c5ccc(CN6CCCC6)c(F)c5)c4c3Cl)CC2)cc1 [Example 188, 8-chloro-7-[4-(4-cyanophenyl)-piperazine-1-yl]-6-fluoro-1-(3-fluoro-4-pyrrolidin-1-ylmethyl-phenyl)-4-oxo-1,4-dihydroquinoline-3-carboxylic acid] | < 0.5 µM
CCN(CC)Cc1ccc(-n2cc(C(=O)O)c(=O)c3cc(F)c(N4CCN(c5cc(Cl)ccc5C)CC4)c(OC(F)(F)F)c32)cc1 [Example 134, 7-[4-(5-chloro-2-methylphenyl)piperazin-1-yl]-1-{4-[(diethylamino)methyl]phenyl}-6-fluoro-4-oxo-8-(trifluoromethoxy)-1,4-dihydroquinoline-3-carboxylic acid] | 0.5 to 2 µM
CN(C)Cc1ccc(-n2cc(C(=O)O)c(=O)c3cc(F)c(N4CCN(c5ccc(F)cc5)CC4)c(OC(F)(F)Cl)c32)cc1 [Example 155, 8-[chloro(difluoro)methoxy]-1-{4-[(dimethylamino)methyl]phenyl}-6-fluoro-7-[4-(4-fluorophenyl)piperazin-1-yl]-4-oxo-1,4-dihydroquinoline-3-carboxylic acid] | < 0.5 µM
CCOc1ccc(N2CCN(c3c(F)cc4c(=O)c(C(=O)O)cn(-c5ccc(CN6CCCC6)cc5)c4c3Cl)CC2)cc1 [Example 12, 8-chloro-7-[4-(4-ethoxyphenyl)piperazin-1-yl]-6-fluoro-4-oxo-1-[4-(pyrrolidin-1-ylmethyl)phenyl]-1,4-dihydroquinoline-3-carboxylic acid] | 2 to 20 µM
O=C(O)c1cn(-c2ccc(CN3CC[C@H](O)C3)cc2)c2c(Cl)c(N3CCN(c4ccccn4)CC3)c(F)cc2c1=O [Example 28, 8-chloro-6-fluoro-1-(4-{[(3S)-3-hydroxypyrrolidin-1-yl]methyl}phenyl)-4-oxo-7-(4-pyridin-2-ylpiperazin-1-yl)-1,4-dihydroquinoline-3-carboxylic acid] | < 0.5 µM
O=C(O)c1cn(-c2ccc(CN3CCCC3)cc2)c2c(Cl)c(N3CCN(c4ncccn4)CC3)c(F)cc2c1=O [Example 6, 8-chloro-6-fluoro-4-oxo-7-(4-pyrimidin-2-ylpiperazin-1-yl)-1-[4-(pyrrolidin-1-ylmethyl)phenyl]-1,4-dihydroquinoline-3-carboxylic acid] | < 0.5 µM
N#Cc1ccccc1N1CCN(c2c(F)cc3c(=O)c(C(=O)O)cn(-c4ccc(CN5CC[C@@H](O)C5)cc4)c3c2Cl)CC1 [Example 32, 8-chloro-7-[4-(2-cyanophenyl)piperazin-1-yl]-6-fluoro-1-(4-{[(3R)-3-hydroxypyrrolidin-1-yl]methyl}phenyl)-4-oxo-1,4-dihydroquinoline-3-carboxylic acid] | < 0.5 µM
O=C(O)c1cn(-c2ccc(CN3CCCC3)nc2)c2c(Cl)c(N3CCN(c4ccccn4)CC3)c(F)cc2c1=O [Example 34, 8-chloro-6-fluoro-4-oxo-7-(4-pyridin-2-yl-piperazin-1-yl)-1-[6-(pyrrolidin-1-ylmethyl)pyridin-3-yl]-1,4-dihydroquinoline-3-carboxylic acid] | 0.5 to 2 µM
Cc1cccc(N2CCN(c3c(F)cc4c(=O)c(C(=O)O)cn(-c5ccc(CN(C)C)cc5)c4c3OC(F)(F)F)CC2)n1 [Example 127, 1-{4-[(dimethylamino)methyl]phenyl}-6-fluoro-7-[4-(6-methylpyridin-2-yl)piperazin-1-yl]-4-oxo-8-(trifluoromethoxy)-1,4-dihydroquinoline-3-carboxylic acid] | < 0.5 µM
O=C(O)c1cn(-c2ccc(CN3CCCC3)cc2F)c2c(Cl)c(N3CCN(c4ccc(F)cc4)CC3)c(F)cc2c1=O [Example 41, 8-chloro-6-fluoro-7-[4-(4-fluorophenyl)-piperazin-1-yl]-1-[2-fluoro-4-(pyrrolidin-1-ylmethyl)phenyl]-4-oxo-1,4-dihydroquinoline-3-carboxylic acid] | < 0.5 µM
COc1cc(CNC2CCC2)ccc1-n1cc(C(=O)O)c(=O)c2cc(F)c(N3CCN(c4ccc(F)cc4)CC3)c(Cl)c21 [Example 178, 8-chloro-1-(4-cyclobutylaminomethyl-2-methoxyphenyl)-6-fluoro-7-[4-(4-fluorophenyl)-piperazine-1-yl]-4-oxo-1,4-dihydroquinoline-3-carboxylic acid] | < 0.5 µM
Cc1cccnc1N1CCN(c2c(F)cc3c(=O)c(C(=O)O)cn(-c4ccc(CN(C)C)cc4)c3c2OC(F)(F)F)CC1 [Example 129, 1-{4-[(dimethylamino)methyl]phenyl}-6-fluoro-7-[4-(3-methylpyridin-2-yl)piperazin-1-yl]-4-oxo-8-(trifluoromethoxy)-1,4-dihydroquinoline-3-carboxylic acid] | 0.5 to 2 µM
O=C(O)c1cn(-c2ccc(CNC3CCCC3)cc2)c2c(OC(F)(F)Cl)c(N3CCN(c4ccc(F)cc4)CC3)c(F)cc2c1=O [Example 181, 8-(chloro-difluoromethoxy)-1-(4-cyclopentylaminomethyl-phenyl)-6-fluoro-4-oxo-7-[4(4-fluorophenyl)piperazine-1-yl]-1,4-dihydroquinoline-3-carboxylic acid] | < 0.5 µM
O=C(O)c1cn(-c2ccc(CN3CCCC3)cc2)c2c(Cl)c(N3CCN(c4ncccc4C(F)(F)F)CC3)c(F)cc2c1=O [Example 14, 8-chloro-6-fluoro-4-oxo-1-[4-(pyrrolidin-1-yl-methyl)phenyl]-7-{4-[3-(trifluoromethyl)pyridin-2-yl]piperazin-1-yl}-1,4-dihydroquinoline-3-carboxylic acid] | 0.5 to 2 µM
CCN(CC)Cc1ccc(-n2cc(C(=O)O)c(=O)c3cc(F)c(N4CCN(c5ccccc5Cl)CC4)c(OC)c32)cc1 [Example 109, 7-[4-(2-chlorophenyl)piperazin-1-yl]-1-{4-[(diethylamino)methyl]phenyl}-6-fluoro-8-methoxy-4-oxo-1,4-dihydroquinoline-3-carboxylic acid] | 0.5 to 2 µM
COc1c(N2CCN(c3ccccc3C#N)CC2)c(F)cc2c(=O)c(C(=O)O)cn(-c3ccc(CN4CCCCC4)cc3)c12 [Example 89, 7-[4-(2-cyanophenyl)piperazin-1-yl]-6-fluoro-8-methoxy-4-oxo-1-[4-(piperidin-1-ylmethyl)phenyl]-1,4-dihydroquinoline-3-carboxylic acid] | < 0.5 µM
CC(C)N(Cc1ccc(-n2cc(C(=O)O)c(=O)c3cc(F)c(N4CCN(c5ccccn5)CC4)c(Cl)c32)cc1)C1CCCCC1 [Example 174, 8-chloro-1-{4-[(2-cyclohexyl-isopropyl-amino)-methyl]-phenyl}-6-fluoro-4-oxo-7-(4-pyridin-2-yl-piperazine-1-yl)-1,4-dihydro-quinoline-3-carboxylic acid] | < 0.5 µM
O=C(O)c1cn(-c2cccc(CN3CCCCC3)c2)c2c(OC(F)(F)F)c(N3CCN(c4ccccc4F)CC3)c(F)cc2c1=O [Example 144, 6-fluoro-7-[4-(2-fluorophenyl)piperazin-1-yl]-4-oxo-1-[3-(piperidin-1-ylmethyl)phenyl]-8-(trifluoromethoxy)-1,4-dihydroquinoline-3-carboxylic acid] | 2 to 20 µM
Cc1cccc(N2CCN(c3c(F)cc4c(=O)c(C(=O)O)cn(-c5ccc(CN6CCCC6)cc5)c4c3OC(F)(F)F)CC2)n1 [Example 120, 6-fluoro-7-[4-(6-methylpyridin-2-yl)piperazin-1-yl]-4-oxo-1-[4-(pyrrolidin-1-ylmethyl)phenyl]-8-(trifluoromethoxy)-1,4-dihydroquinoline-3-carboxylic acid] | < 0.5 µM
CCN(CC)Cc1ccc(-n2cc(C(=O)O)c(=O)c3cc(F)c(N4CCN(c5ccccc5)CC4)c(OC(F)(F)F)c32)cc1 [Example 138, 1-{4-[(diethylamino)methyl]phenyl}-6-fluoro-4-oxo-7-(4-phenylpiperazin-1-yl)-8-(trifluoromethoxy)-1,4-dihydroquinoline-3-carboxylic acid] | < 0.5 µM
Cc1cccc(N2CCN(c3c(F)cc4c(=O)c(C(=O)O)cn(-c5ccc(CN6CCCC6)cc5)c4c3Cl)CC2)n1 [Example 13, 8-chloro-6-fluoro-7-[4-(6-methylpyridin-2-yl)-piperazin-1-yl]-4-oxo-1-[4-(pyrrolidin-1-ylmethyl)phenyl]-1,4-dihydroquinoline-3-carboxylic acid] | < 0.5 µM
O=C(O)c1cn(-c2ccc(CN3CCCC3)cc2)c2c(Cl)c(N3CCN(c4ccc(F)cc4)CC3)c(F)cc2c1=O [Example 2, 8-chloro-6-fluoro-7-[4-(4-fluorophenyl)-piperazin-1-yl]-4-oxo-1-[4-(pyrrolidin-1-ylmethyl)phenyl]-1,4-dihydroquinoline-3-carboxylic acid] | < 0.5 µM
CN(C)Cc1ccc(-n2cc(C(=O)O)c(=O)c3cc(F)c(N4CCN(c5ccccn5)CC4)c(OC(F)(F)F)c32)cc1 [Example 126, 1-{4-[(dimethylamino)methyl]phenyl}-6-fluoro-4-oxo-7-(4-pyridin-2-ylpiperazin-1-yl)-8-(trifluoromethoxy)-1,4-dihydroquinoline-3-carboxylic acid] | < 0.5 µM
COC[C@H]1CCCN1Cc1ccc(-n2cc(C(=O)O)c(=O)c3cc(F)c(N4CCN(c5ncccn5)CC4)c(Cl)c32)cc1 [Example 22, 8-chloro-6-fluoro-1-(4-{[(2R)-2-(methoxy-methyl)pyrrolidin-1-yl]methyl}phenyl)-4-oxo-7-(4-pyrimidin-2-ylpiperazin-1-yl)-1,4-dihydroquinoline-3-carboxylic acid] | 0.5 to 2 µM
O=C(O)c1cn(-c2ccc(CN3CCCC3)cc2)c2c(OC(F)(F)Cl)c(N3CCN(c4ccc(F)cc4)CC3)c(F)cc2c1=O [Example 147, 8-[chloro(difluoro)methoxy]-6-fluoro-7-[4-(4-fluorophenyl)piperazin-1-yl]-4-oxo-1-[4-(pyrrolidin-1-ylmethyl)phenyl]1,4-dihydroquinoline-3-carboxylic acid] | < 0.5 µM
N#Cc1cccnc1N1CCN(c2c(F)cc3c(=O)c(C(=O)O)cn(-c4ccc(CN5CCCC5)nc4)c3c2Cl)CC1 [Example 35, 8-chloro-7-[4-(3-cyanopyridin-2-yl)piperazin-1-yl]-6-fluoro-4-oxo-1-[6-(pyrrolidin-1-ylmethyl)pyridin-3-yl]-1,4-dihydroquinoline-3-carboxylic acid] | < 0.5 µM
